Laboratory results: US10638756B2, “Molecules having pesticidal utility, and intermediates, compositions, and processes, related thereto” (Dow AgroSciences LLC, priority 2017, dated 2020)

Columns and labels:
[1] = test system: Cabbage Looper (Trichoplusia ni); assay: Bioassay on Cabbage Looper (CL), 128-well diet tray assay; format: in vivo; details: 168 h, 50 μg/cm^2 on artificial diet, second instar larvae, five to seven days, read-out: CL % Control (or Mortality) rating
Outline: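 Diet tray, 2nd instar, 1–5 larvae/well; 50 μg/cm^2 compound surface-applied (acetone:water 90:10), dried; 8 wells/treatment; 25° C, 14:10 L:D, 5–7 d; % mortality, mean of 8 wells.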

[2] = test system: Beet Armyworm (Spodoptera exigua); assay: Bioassay on Beet Armyworm (BAW), 128-well diet tray assay; format: in vivo; details: for mortality at 50 µg/cm2: Spodoptera exigua, 168 h, 50 μg/cm^2 on artificial diet, second instar larvae, five to seven days, read-out: BAW % Control (or Mortality) rating

O=C(NNCC(F)(F)F)c1ccc(/C(F)=C/C(c2cc(Cl)c(Cl)c(Cl)c2)C(F)(F)F)cc1C(F)(F)F (stereo not drawn) [F49, (Z)-4-(1,4,4,4-tetrafluoro-3-(3,4,5-trichlorophenyl)but-1-en-1-yl)-N′-(2,2,2-trifluoroethyl)-2-(trifluoromethyl)benzohydrazide]
mortality at 50 µg/cm2 [1]: 50 to 100%
mortality at 50 µg/cm2 [2]: 50 to 100%

CC(C)N(Nc1ncccn1)C(=O)c1ccc(/C(F)=C/C(c2cc(Cl)c(Cl)c(Cl)c2)C(F)(F)F)cc1C(F)(F)F (stereo not drawn) [F170, (Z)—N-Isopropyl-N′-(pyrimidin-2-yl)-4-(1,4,4,4-tetrafluoro-3-(3,4,5-trichlorophenyl)but-1-en-1-yl)-2-(trifluoromethyl)benzohydrazide]
mortality at 50 µg/cm2 [1]: 50 to 100%
mortality at 50 µg/cm2 [2]: 50 to 100%

CN(NC(=O)c1ccc(/C(F)=C/C(c2cc(Cl)c(Cl)c(Cl)c2)C(F)(F)F)cc1C(F)(F)F)c1ncc(N)cn1 (stereo not drawn) [F166, (Z)—N′-(5-Aminopyrimidin-2-yl)-N′-methyl-4-(1,4,4,4-tetrafluoro-3-(3,4,5-trichlorophenyl)but-1-en-1-yl)-2-(trifluoromethyl)benzohydrazide]
mortality at 50 µg/cm2 [1]: 50 to 100%
mortality at 50 µg/cm2 [2]: 50 to 100%

CN(CCCC(F)(F)F)NC(=O)c1ccc(/C(F)=C/C(c2cc(Cl)c(Cl)c(Cl)c2)C(F)(F)F)cc1C(F)(F)F (stereo not drawn) [F155, (Z)—N′-Methyl-4-(1,4,4,4-tetrafluoro-3-(3,4,5-trichlorophenyl)but-1-en-1-yl)-N′-(4,4,4-trifluorobutyl)-2-(trifluoromethyl)benzohydrazide]
mortality at 50 µg/cm2 [1]: 50 to 100%
mortality at 50 µg/cm2 [2]: 50 to 100%

Cc1cc(C)nc(NNC(=O)c2ccc(/C(F)=C/C(c3cc(Cl)c(Cl)c(Cl)c3)C(F)(F)F)cc2C(F)(F)F)n1 (stereo not drawn) [F85, (Z)—N′-(4,6-Dimethylpyrimidin-2-yl)-4-(1,4,4,4-tetrafluoro-3-(3,4,5-trichlorophenyl)but-1-en-1-yl)-2-(trifluoromethyl)benzohydrazide]
mortality at 50 µg/cm2 [1]: 50 to 100%
mortality at 50 µg/cm2 [2]: 50 to 100%

O=C(NNc1ccc(C(F)(F)F)cc1)c1ccc(/C(F)=C/C(c2cc(Cl)c(Cl)c(Cl)c2)C(F)(F)F)cc1C(F)(F)F (stereo not drawn) [F70, (Z)-4-(1,4,4,4-tetrafluoro-3-(3,4,5-trichlorophenyl)but-1-en-1-yl)-2-(trifluoromethyl)-N′-(4-(trifluoromethyl)phenyl)benzohydrazide]
mortality at 50 µg/cm2 [1]: 50 to 100%
mortality at 50 µg/cm2 [2]: 50 to 100%

CCc1cnc(N(C)NC(=O)c2ccc(/C(F)=C/C(c3cc(Cl)c(Cl)c(Cl)c3)C(F)(F)F)cc2C(F)(F)F)nc1 (stereo not drawn) [F41, (Z)—N′-(5-Ethylpyrimidin-2-yl)-N′-methyl-4-(1,4,4,4-tetrafluoro-3-(3,4,5-trichlorophenyl)but-1-en-1-yl)-2-(trifluoromethyl)benzohydrazide]
mortality at 50 µg/cm2 [1]: 50 to 100%
mortality at 50 µg/cm2 [2]: 50 to 100%

O=C(NNc1cncnc1)c1ccc(/C(F)=C/C(c2cc(Cl)c(Cl)c(Cl)c2)C(F)(F)F)cc1C(F)(F)F (stereo not drawn) [F31, (Z)—N′-(Pyrimidin-5-yl)-4-(1,4,4,4-tetrafluoro-3-(3,4,5-trichlorophenyl)but-1-en-1-yl)-2-(trifluoromethyl)benzohydrazide]
mortality at 50 µg/cm2 [1]: 50 to 100%
mortality at 50 µg/cm2 [2]: 50 to 100%

CC(C)N(NC(=O)c1ccc(/C(F)=C/C(c2cc(Cl)c(Cl)c(Cl)c2)C(F)(F)F)cc1C(F)(F)F)c1ncccn1 (stereo not drawn) [F169, (Z)—N′-Isopropyl-N′-(pyrimidin-2-yl)-4-(1,4,4,4-tetrafluoro-3-(3,4,5-trichlorophenyl)but-1-en-1-yl)-2-(trifluoromethyl)benzohydrazide]
mortality at 50 µg/cm2 [1]: 50 to 100%
mortality at 50 µg/cm2 [2]: 50 to 100%

CC(C)(C)CNNC(=O)c1ccc(/C(F)=C/C(c2cc(Cl)c(Cl)c(Cl)c2)C(F)(F)F)cc1C(F)(F)F (stereo not drawn) [F140, (Z)—N′-Neopentyl-4-(1,4,4,4-tetrafluoro-3-(3,4,5-trichlorophenyl)but-1-en-1-yl)-2-(trifluoromethyl)benzohydrazide]
mortality at 50 µg/cm2 [1]: 50 to 100%
mortality at 50 µg/cm2 [2]: 50 to 100%

O=C(NNc1ncccn1)c1ccc(/C(F)=C/C(c2ccc(OC(F)(F)F)c(Cl)c2)C(F)(F)F)cc1C(F)(F)F (stereo not drawn) [F50, (Z)-4-(3-(3-Chloro-4-(trifluoromethoxy)phenyl)-1,4,4,4-tetrafluorobut-1-en-1-yl)-N′-(pyrimidin-2-yl)-2-(trifluoromethyl)benzohydrazide]
mortality at 50 µg/cm2 [1]: 50 to 100%
mortality at 50 µg/cm2 [2]: 50 to 100%

O=C(NNc1ncccn1)c1ccc(/C(F)=C/C(c2ccc(F)c(C(F)(F)F)c2)C(F)(F)F)cc1C(F)(F)F (stereo not drawn) [F32, (Z)—N′-(Pyrimidin-2-yl)-4-(1,4,4,4-tetrafluoro-3-(4-fluoro-3-(trifluoromethyl)phenyl)but-1-en-1-yl)-2-(trifluoromethyl)benzohydrazide]
mortality at 50 µg/cm2 [1]: 50 to 100%
mortality at 50 µg/cm2 [2]: 50 to 100%

O=C(NNC1CCC1)c1ccc(/C(F)=C/C(c2cc(Cl)c(Cl)c(Cl)c2)C(F)(F)F)cc1C(F)(F)F (stereo not drawn) [F138, (Z)—N′-Cyclobutyl-4-(1,4,4,4-tetrafluoro-3-(3,4,5-trichlorophenyl)but-1-en-1-yl)-2-(trifluoromethyl)benzohydrazide]
mortality at 50 µg/cm2 [1]: 50 to 100%
mortality at 50 µg/cm2 [2]: 50 to 100%

O=C(NNc1ncnc(Cl)n1)c1ccc(/C(F)=C/C(c2cc(Cl)c(Cl)c(Cl)c2)C(F)(F)F)cc1C(F)(F)F (stereo not drawn) [F58, (Z)—N′-(4-Chloro-1,3,5-triazin-2-yl)-4-(1,4,4,4-tetrafluoro-3-(3,4,5-trichlorophenyl)but-1-en-1-yl)-2-(trifluoromethyl)benzohydrazide]
mortality at 50 µg/cm2 [1]: 50 to 100%
mortality at 50 µg/cm2 [2]: 50 to 100%

O=C(NNc1ncccn1)c1ccc(/C(F)=C/[C@H](c2cc(Cl)c(Cl)c(Cl)c2)C(F)(F)F)cc1C(F)(F)F (single isomer, unassigned) [F120]
mortality at 50 µg/cm2 [1]: 50 to 100%
BAW (Table CD-2) ([2]; 0.005 μg/cm^2): 100
BAW (Table CD-2) ([2]; 0.05 μg/cm^2): 100
BAW (Table CD-2) ([2]; 0.5 μg/cm^2): 100
BAW (Table CD-2) ([2]; 5.0 μg/cm^2): 100
mortality at 50 µg/cm2 [2]: 50 to 100%

CS(=O)(=O)c1nc(Cl)c(Cl)c(NNC(=O)c2ccc(/C(F)=C/C(c3cc(Cl)c(Cl)c(Cl)c3)C(F)(F)F)cc2C(F)(F)F)c1Cl (stereo not drawn) [F21, (Z)-4-(1,4,4,4-Tetrafluoro-3-(3,4,5-trichlorophenyl)but-1-en-1-yl)-N′-(2,3,5-trichloro-6-methylsulfonyl-4-pyridin-4-yl)-2-(trifluoromethyl)benzohydrazide]
mortality at 50 µg/cm2 [1]: 50 to 100%
mortality at 50 µg/cm2 [2]: 50 to 100%

O=C(NNc1cncc(Cl)n1)c1ccc(/C(F)=C/C(c2cc(Cl)c(Cl)c(Cl)c2)C(F)(F)F)cc1C(F)(F)F (stereo not drawn) [F104, (Z)—N′-(6-Chloropyrazin-2-yl)-4-(1,4,4,4-tetrafluoro-3-(3,4,5-trichlorophenyl)but-1-en-1-yl)-2-(trifluoromethyl)benzohydrazide]
mortality at 50 µg/cm2 [1]: 50 to 100%
mortality at 50 µg/cm2 [2]: 50 to 100%

CN(C)CCNNC(=O)c1ccc(/C(F)=C/C(c2cc(Cl)c(Cl)c(Cl)c2)C(F)(F)F)cc1C(F)(F)F (stereo not drawn) [F143, (Z)—N′-(2-(Dimethylamino)ethyl)-4-(1,4,4,4-tetrafluoro-3-(3,4,5-trichlorophenyl)but-1-en-1-yl)-2-(trifluoromethyl)benzohydrazide]
mortality at 50 µg/cm2 [1]: 0 to 50%
mortality at 50 µg/cm2 [2]: 50 to 100%

CN(NC(=O)c1ccc(/C(F)=C/C(c2cc(Cl)c(F)c(Cl)c2)C(F)(F)F)cc1C(F)(F)F)c1ncccn1 (stereo not drawn) [F2, (Z)-4-(3-(3,5-Dichloro-4-fluorophenyl)-1,4,4,4-tetrafluorobut-1-en-1-yl)-N′-methyl-N′-(pyrimidin-2-yl)-2-(trifluoromethyl)benzohydrazide]
mortality at 50 µg/cm2 [1]: 50 to 100%
mortality at 50 µg/cm2 [2]: 50 to 100%

O=C(NNc1ncccn1)c1ccc(/C(F)=C/C(c2ccc(Br)c(Br)c2)C(F)(F)F)cc1C(F)(F)F (stereo not drawn) [F177, (Z)-4-(3-(3,4-Dibromophenyl)-1,4,4,4-tetrafluorobut-1-en-1-yl)-N′-(pyrimidin-2-yl)-2-(trifluoromethyl)benzohydrazide]
mortality at 50 µg/cm2 [1]: 50 to 100%
mortality at 50 µg/cm2 [2]: 50 to 100%

NN(CC(=O)NCC(F)(F)F)C(=O)c1ccc(/C(F)=C/C(c2cc(Cl)c(Cl)c(Cl)c2)C(F)(F)F)cc1C(F)(F)F (stereo not drawn) [F149, (Z)-2-(1-(4-(1,4,4,4-tetrafluoro-3-(3,4,5-trichlorophenyl)but-1-en-1-yl)-2-(trifluoromethyl)benzoyl)hydrazinyl)-N-(2,2,2-trifluoroethyl)acetamide]
mortality at 50 µg/cm2 [1]: 50 to 100%
mortality at 50 µg/cm2 [2]: 50 to 100%

O=C(NNc1ncc(F)cn1)c1ccc(/C(F)=C/C(c2cc(Cl)c(Cl)c(Cl)c2)C(F)(F)F)cc1C(F)(F)F (stereo not drawn) [F114, (Z)—N′-(5-Fluoropyrimidin-2-yl)-4-(1,4,4,4-tetrafluoro-3-(3,4,5-trichlorophenyl)but-1-en-1-yl)-2-(trifluoromethyl)benzohydrazide]
mortality at 50 µg/cm2 [1]: 50 to 100%
mortality at 50 µg/cm2 [2]: 50 to 100%

O=C(NNc1ccncn1)c1ccc(/C(F)=C/C(c2cc(Cl)c(Cl)c(Cl)c2)C(F)(F)F)cc1C(F)(F)F (stereo not drawn) [F19, (Z)—N′-(Pyrimidin-4-yl)-4-(1,4,4,4-tetrafluoro-3-(3,4,5-trichlorophenyl)but-1-en-1-yl)-2-(trifluoromethyl)benzohydrazide]
mortality at 50 µg/cm2 [1]: 50 to 100%
mortality at 50 µg/cm2 [2]: 50 to 100%

O=C(NNC1CCCC1)c1ccc(/C(F)=C/C(c2cc(Cl)c(Cl)c(Cl)c2)C(F)(F)F)cc1C(F)(F)F (stereo not drawn) [F110, (Z)—N′-Cyclopentyl-4-(1,4,4,4-tetrafluoro-3-(3,4,5-trichlorophenyl)but-1-en-1-yl)-2-(trifluoromethyl)benzohydrazide]
mortality at 50 µg/cm2 [1]: 50 to 100%
mortality at 50 µg/cm2 [2]: 50 to 100%

CN(NC(=O)c1ccc(/C(F)=C/C(c2ccc(Br)c(Cl)c2)C(F)(F)F)cc1C(F)(F)F)c1ncccn1 (stereo not drawn) [F125, (Z)-4-(3-(4-Bromo-3-chlorophenyl)-1,4,4,4-tetrafluorobut-1-en-1-yl)-N′-methyl-N′-(pyrimidin-2-yl)-2-(trifluoromethyl)benzohydrazide]
mortality at 50 µg/cm2 [1]: 50 to 100%
mortality at 50 µg/cm2 [2]: 50 to 100%
